Article PMC6675120, “Potent and selective inhibitors for M32 metallocarboxypeptidases identified from high-throughput screening of anti-kinetoplastid chemical boxes” (PLoS Neglected Tropical Diseases, 2019)

Tests used:
TcMCP-1 = TcMCP-1 (Trypanosoma cruzi, UniProt Q6ZXC0); assay: Continuous fluorogenic (FRET) TcMCP-1 assay with Abz-LKFK(Dnp)-OH, primary and secondary screening; assay type: biochemical; settings: for TcMCP-1 Hill Slope: four-parameter Hill fit of dose-response curve; for TcMCP-1 2º/1º ratio: secondary (31,5 µM) / primary (25 µM) inhibition; for TcMCP-1 Primary screening Inhibition (%): single inhibitor concentration 25 µM; for TcMCP-1 Secondary screening Inhibition (%): single inhibitor concentration 31,5 µM
Sequence of TcMCP-1 (Q6ZXC0 entry or part of it): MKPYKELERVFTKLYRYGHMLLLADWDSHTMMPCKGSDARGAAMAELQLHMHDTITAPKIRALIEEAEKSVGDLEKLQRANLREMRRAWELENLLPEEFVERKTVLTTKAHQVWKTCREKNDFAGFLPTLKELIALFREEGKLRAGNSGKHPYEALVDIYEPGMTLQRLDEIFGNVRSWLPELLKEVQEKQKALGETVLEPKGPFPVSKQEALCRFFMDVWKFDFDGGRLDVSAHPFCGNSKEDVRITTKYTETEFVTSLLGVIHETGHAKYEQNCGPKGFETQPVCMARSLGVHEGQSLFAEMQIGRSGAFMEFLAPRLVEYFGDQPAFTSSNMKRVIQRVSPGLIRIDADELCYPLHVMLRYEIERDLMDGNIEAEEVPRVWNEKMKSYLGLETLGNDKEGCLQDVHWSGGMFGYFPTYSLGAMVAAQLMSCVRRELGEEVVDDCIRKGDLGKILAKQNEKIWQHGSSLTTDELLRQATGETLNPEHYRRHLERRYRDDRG
Description: (§1) TcMCP-1 (MEROPS ID: M32.003) and TbMCP-1 were expressed as GST fusion proteins in E. coli BL21 (DE3) Codon Plus and purified as previously described.
(§2) TbMCP-1 and TcMCP-1 activities were assayed fluorometrically with Abz-RFFK(Dnp)-OH and Abz-LKFK(Dnp)-OH substrates, respectively, in 100 mM MOPS pH 7,2 containing 0,01% Triton X-100. Assays were performed in solid black 384-well plates (final reaction volume ~80 μL) and the hydrolysis of the K(Dnp)-OH group was monitored continuously at 30 °C with a Beckman Coulter DTX 880 Multimode Reader (Radnor, Pennsylvania, USA) using standard 320 nm excitation and 420 nm emission filter set.
(§3) In all cases, EDTA (final concentration 31,25 mM) was used as positive inhibition control.
(§4) Then, 40 μL of 100 mM MOPS, 0,01% Triton X-100 pH 7,2 containing TbMCP-1 (2,50 nM) or TcMCP-1 (0,34 nM) were added to each well, plates were homogenized (30 seg, orbital, medium intensity) and each well subjected to a single autofluorescence read (ex/em = 320/420 nm). Plates were incubated in darkness for 15 min at 30 °C and then 40 μL of Abz-RFFK(Dnp)-OH (4 μM) or Abz-LKFK(Dnp)-OH (0,8 μM) in assay buffer were added to each well to start the reaction. After homogenization (30 seg, orbital, medium intensity), the fluorescence of the Abz group (ortho-aminobenzoic acid) (ex/em = 320/420 nm) was acquired kinetically for each well (8 read cycles, one cycle every 300 seconds). Considering our previous experiences, the auto-fluorescent cut-off was arbitrarily set at 2x10^5 RFU to discard highly interfering compounds. All compounds were assayed in singlet (without replicates) due to the limited availability of stocks.
(§5) Raw screening measurements were used to determine the slope (dF/dt) of progression curves by linear regression for control and non-interfering compound wells. In the case of control-dependent hit selection criteria, percent inhibition percentage (%Inh) was calculated for each compound according to the following equation: Inh=100∙[1−(dF/dt^WELL−μ^C−)/(μ^C+−μ^C−)] (1) where dF/dt^WELL represents the slope of each compound well and μ^C+ and μ^C− the average of MCP (no-inhibition) and substrate (no-enzyme) controls, respectively.
(§6) Compounds selected from primary screening were re-tested in a dose-response manner (final concentration ranging from 7,5 to 62,5 μM) using identical assay conditions. To avoid any positional and/or association bias, we randomly defined the row position for each compound. One μL of compounds stock (10 mM in DMSO) and EDTA (31,25 mM) were added to the first well of column 1, followed by addition of 40 μL of 100 mM MOPS, 0,01% Triton X-100 pH 7,2 buffer. After addition of 20 μL of the same buffer to subsequent wells of the plate, 22 serial 2-fold dilutions were made horizontally. The last two positions of every row were used, alternatively, for C^+ and C^− controls to reduce any positional and/or association bias. Then, 20 μL of activity buffer containing TbMCP-1 or TcMCP-1 were added to each well, except for those corresponding to C^−; completed with 20 μL of activity buffer. After homogenization, 15 minutes of incubation at 30°C and autofluorescence measurement, the substrate (in activity buffer) was added to the previous mix. Data collection and processing were performed exactly as described above. Percentage of M32 MCPs residual activity was calculated for each condition according to the following equation: %Res.Act^MCP=100∙[(dF/dt^WELL−μ^C−)/(μ^C+−μ^C−)] (2) where dF/dt^WELL represents the slope of each compound well and μ^C+ and μ^C− the average of MCP (no-inhibition) and substrate (no-enzyme) controls, respectively.

TbMCP-1 = TbMCP-1 (Trypanosoma brucei, UniProt Q386R0); assay: Continuous fluorogenic (FRET) TbMCP-1 assay with Abz-RFFK(Dnp)-OH, primary and secondary screening; assay type: biochemical; settings: for TbMCP-1 2º/1º ratio: secondary (31,5 µM) / primary (25 µM) inhibition; for TbMCP-1 Primary screening Inhibition (%): single inhibitor concentration 25 µM; for TbMCP-1 Secondary screening Inhibition (%): single inhibitor concentration 31,5 µM; for TbMCP-1 Hill Slope: four-parameter Hill fit of dose-response curve
Sequence of TbMCP-1 (Q386R0 entry or part of it): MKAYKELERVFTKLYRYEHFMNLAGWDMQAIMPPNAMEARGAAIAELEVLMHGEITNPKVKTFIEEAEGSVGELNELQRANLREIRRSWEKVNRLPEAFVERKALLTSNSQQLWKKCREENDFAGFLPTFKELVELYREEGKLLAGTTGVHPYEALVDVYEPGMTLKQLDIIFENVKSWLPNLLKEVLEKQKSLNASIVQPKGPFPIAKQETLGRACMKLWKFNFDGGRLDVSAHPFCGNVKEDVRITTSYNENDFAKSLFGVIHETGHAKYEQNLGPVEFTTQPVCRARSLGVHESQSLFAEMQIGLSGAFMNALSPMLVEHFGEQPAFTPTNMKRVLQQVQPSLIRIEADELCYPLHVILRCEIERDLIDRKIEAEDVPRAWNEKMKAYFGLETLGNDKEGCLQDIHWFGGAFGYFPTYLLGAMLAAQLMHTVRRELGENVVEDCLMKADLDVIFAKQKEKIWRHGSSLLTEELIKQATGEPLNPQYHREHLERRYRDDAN
Description: as §1, §2, §3, §4, §5
as §6, with “To” for “Compounds selected from primary screening were re-tested in a dose-response manner (final concentration ranging from 7,5 to 62,5 μM) using identical assay conditions. To”

Row | SMILES | IC50 (TcMCP-1) [µM] | TcMCP-1 Hill Slope (TcMCP-1) | TcMCP-1 2º/1º ratio (TcMCP-1) | TcMCP-1 Primary screening Inhibition (%) (TcMCP-1) | TcMCP-1 Secondary screening Inhibition (%) (TcMCP-1) | TbMCP-1 2º/1º ratio (TbMCP-1) | TbMCP-1 Primary screening Inhibition (%) (TbMCP-1) | TbMCP-1 Secondary screening Inhibition (%) (TbMCP-1) | IC50 (TbMCP-1) [µM] | TbMCP-1 Hill Slope (TbMCP-1)
1 | CC(C)Oc1cccc(N2CCC(C(=O)N3CCCN(C(C)C)CC3)CC2)c1.Cl [TCMDC-143432] | 26.3 | -0,6129 | 1,27 | 42,37% | 53,96% |  |  |  |  | 
2 | Cc1cc(C#N)c([N+](=O)[O-])cc1Br [TCMDC-143541] |  |  |  |  |  | 0,20 | 44,26% | 8,89% |  | 
3 | Cc1c(Nc2cc(C3CC3)n[nH]2)ccc(C#N)c1Cl.O=C(O)C(F)(F)F [TCMDC-143454] |  |  |  |  |  | 0,63 | 52,66% | 33,23% | > 60 | 
4 | O=C(NNC(=O)c1ccccn1)c1ccc(-c2ccccc2)cc1 [TCMDC-143263] | 40.7 | -0,9946 | 0,31 | 48,44% | 14,84% |  |  |  |  | 
5 | CC1=C(C(=O)Nc2ccc(Cl)cc2)C(c2ccncc2)n2ncc(C(=O)Nc3ccccc3)c2N1 (stereo not shown) [TCMDC-143187] |  |  |  |  |  | 0,50 | 48,70% | 24,44% | > 60 | 
6 | O=C(O)C(F)(F)F.O=C(O)C(F)(F)F.O=C1COC(c2ccccc2)(c2ccccc2)CN1C1CCN(Cc2ccc(-n3ccnc3)cc2)CC1 [TCMDC-143543] | > 60 |  | 0,72 | 43,40% | 31,11% |  |  |  |  | 
7 | CN(C)S(=O)(=O)c1ccc(Cl)c(C(=O)Nc2nc(-c3ccccn3)cs2)c1 [TCMDC-143265] |  |  |  |  |  | 0,40 | 59,46% | 23,62% | 44.2 | -2,036
8 | CN(C)c1ccc(-c2cc3nccnc3c(OC[C@H]3CCCNC3)n2)cn1.Cl [TCMDC-143408] | 32.9 | -1,153 | 1,06 | 46,88% | 49,75% |  |  |  |  | 
9 | O=C(N[C@H](CO)c1ccccc1)c1ccc(-c2c[nH]c3nccc(C(F)(F)F)c23)s1 [TCMDC-143254] |  |  |  |  |  | 0,78 | 45,94% | 35,87% | 43.4 | -0,8163
10 | Cl.Cl.O=c1ccc2ccc(F)c3c2n1C[C@H]3CN1CCN(CC(O)c2cc3c(cn2)OCS3)CC1 (stereo partly shown) [TCMDC-143158] |  |  |  |  |  | 1,19 | 44,84% | 53,51% | 27.6 | -1,014
11 | CCC1Oc2cc(S(=O)(=O)N(C)CC(=O)N3CCc4ccccc4C3)c(C)cc2NC1=O (stereo not shown) [TCMDC-143332] |  |  |  |  |  | 1,03 | 55,90% | 57,63% | 23.3 | -1,063
12 | CC(C)Oc1ccc(C(=O)Nc2ccc(N3CCOCC3)c(Cl)c2)cc1 [TCMDC-143592] | 27.9 | -0,8919 | 1,03 | 56,55% | 58,11% |  |  |  |  | 
13 | N#Cc1cc([N+](=O)[O-])ccc1NC1CCCCCC1 [TCMDC-143143] |  |  |  |  |  | 1,61 | 41,27% | 66,27% | 21.8 | -1,466
14 | CC(C)N(C(=O)CN1C(=O)C(N)C(=O)N(c2ccccc2)c2ccccc21)c1ccccc1 (stereo not shown) [TCMDC-143071] | 38.9 | -1,235 | 0,63 | 45,44% | 28,65% |  |  |  |  | 
15 | Cc1c([N+](=O)[O-])c(C(=O)Nc2sc3c(c2C#N)CCC(C)C3)nn1C (stereo not shown) [TCMDC-143155] |  |  |  |  |  | 0,23 | 44,57% | 10,36% |  | 
16 | COc1cccc(-c2cc(C(F)(F)F)nc(-n3ccc([N+](=O)[O-])n3)n2)c1 [TCMDC-143105] |  |  | 0,34 | 52,36% | 17,76% |  |  |  |  | 
17 | COc1ccc(S(=O)(=O)Nc2ccc(CN3CCN(C(=O)c4cccc(C#N)c4)CC3)cc2)cc1.O=C(O)C(F)(F)F [TCMDC-143496] | 34.9 | -0,822 | 1,09 | 41,52% | 45,37% |  |  |  |  | 
18 | Cc1ccc2c(c1)-c1onc(C(=O)N3CCCCC3c3cccnc3)c1CO2 (stereo not shown) [TCMDC-143191] |  |  |  |  |  | 0,78 | 88,97% | 69,40% | 16.1 | -1,267
19 | CC(Cn1ccnc1)NC(=O)COc1ccc(Cl)c(Cl)c1 (stereo not shown) [TCMDC-143479] |  |  | 0,31 | 42,39% | 13,15% |  |  |  |  | 
20 | COc1cccc(S(=O)(=O)Nc2ccc3c(c2)CC(N2CCC(NC(=O)C4CC4)CC2)C3)c1 (stereo not shown) [TCMDC-143583] |  |  | -0,15 | 77,30% | -11,25% |  |  |  |  | 
21 | CC(=O)Nc1cccc(Nc2ncnc3nc[nH]c23)c1 [TCMDC-143399] |  |  |  |  |  | 0,19 | 43,27% | 8,15% |  | 
22 | Cl.Cl.O=c1cc(NCCCNCc2cc(C(F)(F)F)cs2)[nH]c2ccccc12 [TCMDC-143645] |  |  |  |  |  | 1,27 | 42,78% | 54,13% | 20.8 | -1,127
23 | O=C(c1cc2cc(Cl)ccc2[nH]1)N1CCCCC1c1cccnc1 (stereo not shown) [TCMDC-143159] |  |  |  |  |  | 0,25 | 52,96% | 13,07% |  | 
24 | Cn1ccnc1CN1CCc2[nH]cnc2C1c1ccccc1OCc1ccccc1 (stereo not shown) [TCMDC-143242] | 26.5 | -1,237 | 1,02 | 51,89% | 52,68% |  |  |  |  | 
25 | O=C(NCC1CCCCC1)c1cc(=O)c2ccccc2o1 [TCMDC-123621] |  |  |  |  |  | -0,05 | 44,99% | -2,11% |  | 
